Our source for the TGI and GI50 values is PubChem BioAssay (NCI).

Each structure is given as a SMILES string. Values joined by “and” are separate entries in the source; they are usually repeats but may differ in a detail not shown here. Equal entries are not always repeated.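 Where inhibition never reached the appropriate level, the endpoint shown equals the highest concentration tested. Otherwise, values were interpolated linearly from a five-concentration, 48-hour dose response in 96-well plates. Here, GI50 denotes the concentration required for 50% inhibition of growth. The concentration for full growth arrest is given as TGI.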

Experiment in all cases: NCI anticancer screen, dose series, 48 h
Assay [1] deals with NCI-H460 lung.
In assay [2] the test system is SNB-75 CNS.
In assay [3] the test system is SR leukemia.
Assay [4] relates to SN12C renal.
Assay [5] has as its system HOP-92 NSCLC.
Assay [6] relates to HCT-116 colon.
The test system of assay [7] is KM12 colon.
Assay [8] concerns RPMI-8226 leukemia.
Assay [9] relates to A498 renal.
In assay [10] the test system is MDA-MB-231 breast.
In assay [11] the test system is HS 578T breast.
The test system of assay [12] is SK-OV-3 ovarian.
Assay [13] has as its system SF-539 CNS.

As to `COC(=O)c1c(O)ccc2c1c1c(n2Cc2ccc(Cl)cc2Cl)C(=O)c2ccccc2C1=O`, the TGI in assay [1] amounted to 13 µM; in assay [2], 32.3 µM; in assay [3], 12.3 µM; in [4], 5.62 µM; in assay [5] it was 25.1 µM; in assay [6] it was 13.1 µM. In addition, the TGI in assay [7] worked out at 15.9 µM; in assay [8] it was 13.5 µM; in [9], 33.7 µM; in assay [10], 23.5 µM; in assay [11] it was 33.1 µM; in assay [12] it was 27.6 µM. The same compound came in with a TGI in [13] of 27.7 µM.

For `CCOc1ccc(N/C(Cl)=C(Cl)\C(=C(\Nc2ccc(OCC)cc2)n2nnc3ccccc32)[N+](=O)[O-])cc1`, the TGI was > 59.7 µM in assay [1]; 42.5 µM in assay [2]; 5.26 µM in assay [3]; 23.3 µM in [4]; 5.56 µM in assay [5]; 5.29 µM in assay [6]. Also, the TGI is > 57.6 µM in [7]; > 30.5 µM in assay [8]; 39 µM in assay [9]; 15.6 µM in assay [10]; > 100 µM in assay [11]; > 100 µM in assay [12]. The same compound had a TGI in assay [13] of 11.1 µM.

Take `CCOC(=O)[C@@]12C[C@](/C=C/OC)(O[Si](C)(C)C)[C@@]13c1cc(OC)c(OC)cc1CCN3C(=O)C2O` (some centres not stated): the TGI in assay [1], in assay [2], in assay [3], in [4], in assay [5] and in assay [6] was > 100 µM in each case. Also, the TGI in assay [7], in [8], in assay [9], in [10], in assay [11] and in [12] was > 100 µM throughout. For the same compound, the TGI in assay [13] is > 100 µM.

In the case of `CN(C)P(=O)(Oc1ccc(CC(NC(=O)OCc2ccccc2)C(=O)OCc2ccccc2)cc1)N(C)C` (configuration not stated), the TGI stood at 48.8 µM in [1]; 33.3 µM in assay [2]; 24.6 µM in [3]; 31.8 µM in assay [4]; 34.9 µM in [5]; 31.3 µM in assay [6]. In addition, the TGI in assay [7] was found to be 40.3 µM; in assay [8] it was 15.2 µM; in [9], 38.1 µM; in assay [10] it was 34.3 µM; in [11] it was 67.5 µM; in [12], 33.2 µM. In assay [13], the TGI was 39.7 µM.

For `CC(=O)O[C@H]1/C(=C/c2ccncc2)C[C@H]2[C@@H]3CC=C4C[C@@H](N5CCCC5)CC[C@]4(C)[C@H]3CC[C@]12C`, the TGI stood at 24.8 µM in [1]; 28.3 µM in assay [2]; 21.6 µM in assay [3]; 30.8 µM in assay [4]; 19.8 µM in assay [5]; 15.3 µM in assay [6]. Moreover, the TGI came to 26.2 µM in assay [7]; 23.4 µM in [8]; 30.9 µM in assay [9]; 35 µM in assay [10]; 33.7 µM in [11]; 37 µM in assay [12]. In [13], this compound displayed a TGI of 35 µM.

As to `CC(C)NC(=O)OCc1c(COC(=O)NC(C)C)c(-c2cc[n+](COC(=O)C(C)(C)C)cc2)n2c1CCC2`, the TGI in [1], in assay [2], in assay [3], in [4], in [5] and in assay [6] was > 100 µM throughout. The TGI in assay [7], in assay [8], in assay [9], in assay [10], in assay [11] and in assay [12] was > 100 µM throughout. For the same compound, the TGI in [13] is > 100 µM.

In the case of `COCCCNC(=O)C1=C(C)NC(C)=C(C(=O)NCCCOC)C1`, the TGI in assay [1], in assay [2], in assay [3], in assay [4], in assay [5] and in assay [6] was > 100 µM each time. Also, the TGI in assay [7], in assay [8], in assay [9], in assay [10], in [11] and in assay [12] was > 100 µM throughout. For the same compound, in assay [13], the TGI is > 100 µM.

With `CC(C)(C)Nc1noc(=O)n1C(C)(C)C`, the TGI in assay [1], in assay [2], in assay [3], in [4], in assay [5] and in assay [6] was > 100 µM throughout. The TGI in assay [7], in [8], in assay [9], in assay [10], in assay [11] and in assay [12] was > 100 µM each time. Moreover, the TGI in [13] is > 100 µM.

Regarding `COC(=O)C1OC(O[C@H]2CC[C@]3(C)[C@H]4CC=C5[C@@H]6CC(C)(C)CC[C@]6(C(=O)OC6OCC(O)C(O)C6OC6OC(C)C(OC7OCC(O)C(OC8OCC(O)C(O)C8O)C7O)C(OC7OCC(O)C(O)C7O)C6O)CC[C@@]5(C)[C@]4(C)CC[C@H]3C2(C)C)C(O)C(OC2OCC(O)C(O)C2O)C1O` (some centres not stated), the GI50 was > 100 µM and 33.1 µM in assay [1]; 5.19 µM and 11.7 µM in assay [2]; > 100 µM and 47.6 µM in assay [13]. The TGI in assay [1] is > 100 µM; in [2], 25.3 µM and 26.3 µM; in assay [3], 4.76 µM and 7.55 µM; in assay [4] it was 5.4 µM and 5.69 µM; in [5], 5.25 µM and 7.62 µM; in [6] it was > 100 µM and 23.3 µM. The TGI was 10.7 µM and 10.8 µM in assay [7]; 9 µM and 15.6 µM in assay [8]; 3.55 µM and 4.34 µM in assay [9]; 8.81 µM and 13.5 µM in assay [10]; > 100 µM and 33.9 µM in assay [11]; > 100 µM and 27.8 µM in assay [12]. Besides, in assay [13], the TGI is > 100 µM.

In the case of `C=C(C)[C@H]1C=C[C@@H](OC(=O)c2cccnc2)[C@@]23CO[C@@](C)([C@H](OC(=O)c4cccnc4)[C@@]4(OC(C)=O)C[C@H](C)[C@H](OCCC)[C@@H]4[C@H]2OC(C)=O)[C@H]13`, the TGI in [1], in assay [2], in assay [3], in [4], in [5] and in assay [6] was > 15 µM throughout. The TGI in assay [7], in [8], in [9], in assay [10], in assay [11] and in [12] was > 15 µM each time. Besides, the TGI in assay [13] was > 15 µM.

With `Cc1ccc(Nc2c(C#N)[n+]([O-])c3cc(Cl)ccc3[n+]2[O-])cc1`, the TGI is > 100 µM in assay [1]; > 100 µM in assay [2]; > 36.3 µM in assay [3]; > 100 µM in assay [4]; > 100 µM in assay [5]; > 100 µM in assay [6]. The TGI in [7], in assay [8], in assay [9], in [10], in assay [11] and in [12] was > 100 µM in each case. Moreover, in assay [13], the TGI was > 100 µM.

As to `NCCN1C(=O)CN=C(c2ccc(Cl)cc2)c2cc(Cl)ccc21`, the TGI was determined as 34.4 µM in assay [1]; 30.7 µM in assay [2]; 40.7 µM in assay [3]; 62.9 µM in [4]; 39.7 µM in [5]; 30.1 µM in [6]. Moreover, the TGI in [7] was determined as 31.3 µM; in assay [8] it was 36.4 µM; in [9], 33.8 µM; in assay [10], 30.5 µM; in assay [11] it was 35.8 µM; in assay [12] it was 47.6 µM. The compound also registered a TGI in assay [13] of 34.1 µM.

For `Cc1ccc(-c2cc(C(F)(F)F)nn2-c2ccc(S(N)(=O)=O)cc2)cc1`, the TGI in assay [1] is 37.4 µM; in assay [2] it was > 53.8 µM; in [3], 45.3 µM; in assay [4] it was 42.1 µM; in assay [5], 29.8 µM; in [6], > 58.2 µM. In addition, the TGI was 35.9 µM in assay [7]; 29.9 µM in assay [8]; 43.4 µM in assay [9]; > 54.2 µM in assay [10]; 58.7 µM in assay [11]; > 57 µM in assay [12]. Also, the TGI in [13] was > 59.4 µM. The GI50 in assay [5] is 12 µM.

As to `O=P1(Oc2ccccc2)N(CCCl)CCN1c1ccccc1` (configuration not stated), the TGI in assay [1], in assay [2], in assay [3], in assay [4], in [5] and in [6] was > 100 µM each time. The TGI in [7], in assay [8], in assay [9], in assay [10], in assay [11] and in assay [12] was > 100 µM in each case. In addition, in assay [13], the TGI was > 100 µM.

Take `Nc1ccn(C2CCC(CO)O2)c(=S)n1` (configuration not stated): the TGI in assay [1], in [2], in assay [3], in assay [4], in assay [5] and in assay [6] was > 100 µM each time. The TGI in assay [7], in assay [8], in assay [9], in [10], in [11] and in assay [12] was > 100 µM each time. The TGI in [13] was > 100 µM.

For the compound `CCCCCCOc1ccc(C(=O)NO)cc1`, the TGI in assay [1] is 20.8 µM; in assay [2], > 67.2 µM; in [3], 23.6 µM; in assay [4] it was 19.5 µM; in assay [5] it was 40 µM; in assay [6], 21.5 µM. Besides, the TGI in assay [7] came out at 27.6 µM; in [8] it was 29.8 µM; in assay [9], 28.1 µM; in [10], 21.9 µM; in assay [11], 67.2 µM; in assay [12], 60.3 µM. This compound also registered a TGI in assay [13] of 45.7 µM.
